Measured values taken from patent US20240124442A1, “TRICYCLIC-AMIDO-BICYCLIC PRMT5 INHIBITORS” (AMGEN INC., priority 2021, published 2024).

What was measured:
HCT116 MTAP null cells = test: HCT116 MTAP null cell line proliferation / cell viability (CellTiter-Glo, 6 days); type: cell-based; conditions: for IC50: 144 h, HCT116 MTAP null cells, 6 days treatment, CellTiter-Glo cell viability, read-out: HCT-116 MTAP null IC50
In short: (§1)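 Isogenic HCT116 pair (parental and MTAP-knockout) in RPMI 1640 + 10% FBS, treated 6 days with 8–9-point 1:3 dilutions from 1 or 10 μM top, or 22-point 1:2 dilutions from 10 or 50 μM top. Viability by CellTiter-Glo luminescence; IC50 from 4-parameter logistic fit or sigmoidal fit with Hill slope fixed at −1.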

HCT116 WT cells = test: HCT116 WT (parent) cell line proliferation / cell viability (CellTiter-Glo, 6 days); type: cell-based; conditions: Homo sapiens, HCT-116, 144 h, 6 days treatment
In short: as §1

| SMILES | IC50 (HCT116 MTAP null cells) | IC50 (HCT116 WT cells) | relative potency of the enantiomers (measured by IC50 in HCT116 MTAP null cell viability assay) (HCT116 MTAP null cells; comparison of the two enantiomers separated by SFC, used to assign (S)/(R)) |
| --- | --- | --- | --- |
| Cn1ncc2c(N)nc3ccc(C(=O)N(CC4CC4)[C@H]4COCc5nc(C(F)(F)F)ccc54)cc3c21 (single isomer, unassigned) [Example 594] | 228 nM | 19400 nM | – |
| CN(C(=O)c1ccc2nc(N)c3c(c2c1)COC3)[C@H]1COc2cc(S(C)(=O)=O)ccc21 (single isomer, unassigned) [Example 324] | 5320 nM | 50000 nM | – |
| COc1ccc2c(c1)COC[C@H]2N(C)C(=O)c1ccc2nc(N)c3c(c2c1)COC3 (single isomer, unassigned) [Example 393] | 136 nM | 4070 nM | – |
| CCN(C(=O)c1ccc2nc(N)c3cnn(C)c3c2c1)[C@H]1COCc2nc(C(F)(F)F)ccc21 [Example 502, 4-amino-N-ethyl-1-methyl-N-((5R)-2-(trifluoromethyl)-5,8-dihydro-6H-pyrano[3,4-b]pyridin-5-yl)-1H-pyrazolo[4,3-c]quinoline-8-carboxamide] | 414 nM | 11800 nM | – |
| CN(C(=O)c1ccc2nc(N)c3cnn(C)c3c2c1)[C@H]1COCc2cc(-c3ccc(C(F)(F)F)cc3)ccc21 (single isomer, unassigned) [Example 670] | 536 nM | 1120 nM | – |
| C[C@@H]1OCc2c(N)nc3ccc(C(=O)N(C)C4COc5cc(C(F)(F)F)ccc54)cc3c21 (mixture of isomers) [Example 205, (1R)-4-amino-N,1-dimethyl-N-((3S)-6-(trifluoromethyl)-2,3-dihydro-1-benzofuran-3-yl)-1,3-dihydrofuro[3,4-c]quinoline-8-carboxamide and (1S)-4-amino-N,1-dimethyl-N-((3S)-6-(trifluoromethyl)-2,3-dihydro-1-benzofuran-3-yl)-1,3-dihydrofuro[3,4-c]quinoline-8-carboxamide] | 360 nM | 12300 nM | – |
| COc1ccc2c(n1)COC[C@H]2N(C)C(=O)c1cc2c(cc1F)nc(N)c1c2cnn1C [Example 513, 4-amino-7-fluoro-N-((5S)-2-methoxy-5,8-dihydro-6H-pyrano[3,4-b]pyridin-5-yl)-N,3-dimethyl-3H-pyrazolo[3,4-c]quinoline-8-carboxamide] | 168 nM | 10200 nM | – |
| CN(C(=O)c1ccc2nc(N)c3cnn(C)c3c2c1)C1CCc2ccccc21 (racemic) [Example 681, 4-amino-N-((1R)-2,3-dihydro-1H-inden-1-yl)-N,1-dimethyl-1H-pyrazolo[4,3-c]quinoline-8-carboxamide and 4-amino-N-((1S)-2,3-dihydro-1H-inden-1-yl)-N,1-dimethyl-1H-pyrazolo[4,3-c]quinoline-8-carboxamide] | 530 nM | 9330 nM | – |
| CN(C(=O)c1ccc2nc(N)c3c(c2c1)COC3)[C@H]1COc2cc(C(F)(F)F)ccc21 (single isomer, unassigned) [Example 318] | 1360 nM | 10000 nM | less potent |
| CN(C(=O)c1ccc2nc(N)c3ncncc3c2c1)[C@@H]1COc2cc(C(F)(F)F)ccc21 [Example 221, 5-amino-N-methyl-N-((3S)-6-(trifluoromethyl)-2,3-dihydro-1-benzofuran-3-yl)pyrimido-[4,5-c]quinoline-9-carboxamide] | 590 nM | 4290 nM | – |
| CN(C(=O)c1cc2c(cc1F)nc(N)c1cnn(C)c12)[C@H]1COc2cc(S(F)(F)(F)(F)F)ccc21 (single isomer, unassigned) [Example 383] | 380 nM | 5660 nM | – |
| CN(C(=O)c1cc2c3c(c(N)nc2cn1)COC3)C1COc2cc(OC(F)F)ccc21 (racemic) [Example 453, 4-amino-N-((3R)-6-(difluoromethoxy)-2,3-dihydro-1-benzofuran-3-yl)-N-methyl-1,3-dihydrofuro[3,4-c][1,7]naphthyridine-8-carboxamide and 4-amino-N-((3S)-6-(difluoromethoxy)-2,3-dihydro-1-benzofuran-3-yl)-N-methyl-1,3-dihydrofuro[3,4-c][1,7]naphthyridine-8-carboxamide] | 246 nM | 13300 nM | – |

Second part, the molecule after the results:

| IC50 (HCT116 MTAP null cells) | IC50 (HCT116 WT cells) | relative potency of the enantiomers (measured by IC50 in HCT116 MTAP null cell viability assay) (HCT116 MTAP null cells; comparison of the two enantiomers separated by SFC, used to assign (S)/(R)) | SMILES |
| --- | --- | --- | --- |
| 134 nM | 14700 nM | – | CN=S(C)(=O)c1ccc2c(c1)OC[C@H]2N(C)C(=O)c1cc2c3c(c(N)nc2cc1F)COC3 (mixture of isomers) [Example 463, 4-amino-N-((3S)-6-((R)-N,S-dimethylsulfonimidoyl)-2,3-dihydro-1-benzofuran-3-yl)-7-fluoro-N-methyl-1,3-dihydrofuro[3,4-c]quinoline-8-carboxamide and 4-amino-N-((3S)-6-((S)-N,S-dimethylsulfonimidoyl)-2,3-dihydro-1-benzofuran-3-yl)-7-fluoro-N-methyl-1,3-dihydrofuro[3,4-c]quinoline-8-carboxamide] |
| 123 nM | 11100 nM | – | CN(C(=O)c1ccc2nc(N)c3c(cnn3C)c2c1)[C@@H]1COCc2nc(C(F)(F)F)ccc21 [Example 512, 4-amino-N,3-dimethyl-N-((5S)-2-(trifluoromethyl)-5,8-dihydro-6H-pyrano[3,4-b]pyridin-5-yl)-3H-pyrazolo[3,4-c]quinoline-8-carboxamide] |
| 26 nM | 1180 nM | – | CN(C(=O)c1cc2c3c(c(N)nc2cc1F)COC3)[C@@H]1COc2cc(C(F)(F)F)cc(F)c21 (single isomer, unassigned) [Example 355] |
| 50 nM | 2110 nM | – | COc1ccc2c(c1)COC[C@H]2N(C)C(=O)c1cc2c3c(c(N)nc2cc1F)COC3 (single isomer, unassigned) [Example 400] |
| 26 nM | 1720 nM | – | Cc1cc2nc(N)c3cnn(C)c3c2cc1C(=O)N(C)C1CCOCc2nc(C(F)(F)F)ccc21 [Example 316, 4-amino-N,1,7-trimethyl-N-(5R)-2-(trifluoromethyl)-5,6,7,9-tetrahydrooxepino[3,4-b]pyridin-5-yl)-1H-pyrazolo-[4,3-c]quinoline-8-carboxamide and 4-amino-N,1,7-trimethyl-N-((5S)-2-(trifluoromethyl)-5,6,7,9-tetrahydrooxepino[3,4-b]pyridin-5-yl)-1H-pyrazolo-[4,3-c]quinoline-8-carboxamide] |
| 10 nM | 595 nM | – | CN(C(=O)c1cc2c(cc1F)nc(N)c1cnn(C)c12)[C@@H]1COc2nc(C(F)(F)F)ccc21 (single isomer, unassigned) [Example 377] |
| 5 nM | 43 nM | – | CCN(C(=O)c1cc2c(cc1F)nc(N)c1cnn(C)c12)[C@@H]1COCc2nc(C(F)(F)F)ccc21 [Example 508, 4-amino-N-ethyl-7-fluoro-1-methyl-N-((5S)-2-(trifluoromethyl)-5,8-dihydro-6H-pyrano[3,4-b]pyridin-5-yl)-1H-pyrazolo[4,3-c]quinoline-8-carboxamide] |
| 62 nM | 3240 nM | – | CN(C(=O)c1cc2c(cc1F)nc(N)c1c2cnn1C)[C@@H]1COc2cc(OC(F)(F)F)ccc21 [Example 259, 4-amino-7-fluoro-N,3-dimethyl-N-((3S)-6-(trifluoromethoxy)-2,3-dihydro-1-benzofuran-3-yl)-3H-pyrazolo[3,4-c]quinoline-8-carboxamide] |
| 5 nM | 136 nM | – | CN(C(=O)c1cc2c(cc1Cl)nc(N)c1cnn(C)c12)[C@@H]1COc2nc(C(F)(F)F)ccc21 (single isomer, unassigned) [Example 387] |
| 4 nM | 228 nM | – | CN(C(=O)c1ccc2nc(N)c3cnn(C)c3c2c1)[C@@H]1COCc2cc(Br)ccc21 (single isomer, unassigned) [Example 412] |
| 5 nM | 431 nM | – | CN(C(=O)c1ccc2nc(N)c3cnn(C)c3c2c1)[C@@H]1COc2cc(C3CCOCC3)ccc21 [Example 688, (S)-4-amino-N,1-dimethyl-N-(6-(tetrahydro-2H-pyran-4-yl)-2,3-dihydrobenzofuran-3-yl)-1H-pyrazolo[4,3-c]quinoline-8-carboxamide] |
| 39 nM | 2240 nM | – | CN(C(=O)c1cc2c3c(c(N)nc2cc1F)COC3)[C@@H]1CCc2nc(C(F)(F)F)ccc21 (single isomer, unassigned) [Example 349] |
| 22 nM | 1520 nM | – | COC(=O)c1ccc2c(c1)OC[C@H]2N(C)C(=O)c1ccc2nc(N)c3cnn(C)c3c2c1 [Example 685, methyl (S)-3-(4-amino-N,1-dimethyl-1H-pyrazolo[4,3-c]quinoline-8-carboxamido)-2,3-dihydrobenzofuran-6-carboxylate] |
| 42 nM | 630 nM | – | CN(C(=O)c1ccc2nc(N)c3cnn(C)c3c2c1)[C@@H]1COc2cc(-c3ccc(OC(F)(F)F)cc3)ccc21 [Example 658, 4-amino-N,1-dimethyl-N-((3S)-6-(4-(trifluoromethoxy)phenyl)-2,3-dihydro-1-benzofuran-3-yl)-1H-pyrazolo[4,3-c]quinoline-8-carboxamide] |
| 12 nM | 594 nM | – | CN(C(=O)c1cc2c3c(c(N)nc2cc1Cl)COC3)[C@@H]1COc2cc(C(F)(F)F)ccc21 (single isomer, unassigned) [Example 560] |
| 122 nM | 2460 nM | – | Nc1nc2cnc(C(=O)N(C3CC3)[C@@H]3COc4cc(C(F)(F)F)ccc43)cc2c2c1COC2 (single isomer, unassigned) [Example 547] |
| 18 nM | 432 nM | – | CN(C(=O)c1ccc2nc(N)c3ccncc3c2c1)[C@@H]1COc2cc(C(F)(F)F)ccc21 [Example 220, 5-amino-N-methyl-N-((3S)-6-(trifluoromethyl)-2,3-dihydro-1-benzofuran-3-yl)-benzo[c][2,6]naphthyridine-9-carboxamide] |
